This is an account of results in patent publication US9914722B2, “Compounds for treating spinal muscular atrophy” (PTC Therapeutics Inc., priority 2012, dated 2018).

The test system of one data set is Smn protein. Description: Smn protein assay (Smn HTRF) in cultured cells. In kind it is cell-based, human. As to conditions: Homo sapiens, Fibroblast, GM03813 SMA Type 1 patient fibroblasts, 48 hours, HTRF; for maximal fold induction: 7-point concentration data, relative to vehicle, read-out: maximum fold (Fold) increase of Smn protein; for EC (1.5-fold): concentration producing 1.5 times Smn protein vs DMSO vehicle, read-out: EC1.5x for Smn protein expression. How it is done: Smn Protein Assay in Cultured Cells
The Smn HTRF (homogeneous time resolved fluorescence) assay is used to quantify the level of Smn protein in SMA patient fibroblast cells treated with test compounds.
Protocol. Cells are thawed and cultured in DMEM-10% FBS for 72 hours. Cells are trypsinized, counted and re-suspended to a concentration of 25,000 cells/mL in DMEM-10% FBS. The cell suspension is plated at 5,000 cells per well in a 96 well microtiter plate and incubated for 3 to 5 hours. […] Test compounds are serially diluted 3.16-fold in 100% DMSO to generate a 7-point concentration curve. 1 μL of test compound solution is transferred to cell-containing wells and cells are incubated for 48 hours in a cell culture incubator (37° C., 5% CO2, 100% relateive humidity). Triplicate samples are set up for each test compound concentration. After 48 hours, the supernatant is removed from the wells and 25 μL of the RIPA lysis buffer, containing protease inhibitors, is added to the wells and incubated with shaking at room temperature for 1 hour. 25 μL of the diluent is added and then 35 μL of the resulting lysate is transferred to a 384-well plate, where each well contains 5 μL of the antibody solution (1:100 dilution of anti-SMN d2 and anti-SMN kryptate in SMN reconstitution buffer). The plate is centrifuged for 1 minute to bring the solution to the bottom of the wells, then incubated overnight at room temperature. Fluorescence for each well of the plate at 665 nm and 620 nm is measured on an EnVision multilabel plate reader (Perkin-Elmer).
The normalized fluorescence signal is calculated for each sample, Blank and vehicle control well by dividing the signal at 665 nm by the signal at 620 nm. Normalizing the signal accounts for possible fluorescence quenching due to the matrix effect of the lysate. The AF value (a measurement of Smn protein abundance as a percent value) for each sample well is calculated by subtracting the normalized average fluorescence for the Blank control wells from the normalized fluorescence for each sample well, then dividing this difference by the normalized average fluorescence for the Blank control wells and multiplying the resulting value by 100. The ΔF value for each sample well represents the Smn protein abundance from test compound-treated samples. The ΔF value for each sample well is divided by the ΔF value for the vehicle control wells to calculate the fold increase in Smn protein abundance relative to the vehicle control.
For compounds of Formula (I) or a form thereof disclosed herein, Table 9 provides the EC1.5x for Smn protein expression that was obtained from the 7-point concentration data generated for each test compound according to the procedure of Biological Example 7. The term “EC1.5x for Smn protein expression” is defined as that concentration of test compound that is effective in producing 1.5 times the amount of Smn protein in an SMA patient fibroblast cell compared to the amount produced from the DMSO vehicle control. An EC1.5x for Smn protein expression between >3 μM and ≦10 μM is indicated by one star (*), an EC1.5x between >1 μM and ≦3 μM is indicated by two stars (**), an EC1.5x between >0.3 μM and ≦1 μM is indicated by three stars (***) and an EC1.5x≦0.3 μM is indicated by four stars (****).
For compounds of Formula (I) or a form thereof disclosed herein, Table 10 provides the maximum fold (Fold) increase of Smn protein that was obtained from the 7-point concentration data generated for each test compound according to the procedure of Biological Example 7. A maximum fold increase ≦1.2 is indicated by one star (*), a fold increase between >1.2 and ≦1.35 is indicated by two stars (**), a fold increase between >1.35 and ≦1.5 is indicated by three stars (***), a fold increase between >1.5 and ≦1.65 is indicated by four stars (****) and a fold increase >1.65 is indicated by five stars (*****).
(Time-resolved FRET reads energy transfer from a long-lived donor to a nearby acceptor.)

For data set [1], the system named is full length SMN2 minigene mRNA containing SMN2 exon 7 (SMN2-A minigene). Description: SMN2 minigene mRNA splicing RT-qPCR assay in cultured cells. In kind it is cell-based, human. As to conditions: Homo sapiens, HEK293-H; HEK293H cells stably transfected with SMN2-A minigene, 24 hours, 7-point concentration curve; concentration giving 1.5-fold SMN2 full length mRNA vs vehicle; read-out: EC1.5x for production of full length SMN2 mRNA. How it is done: SMN2 Minigene mRNA Splicing RT-qPCR Assay in Cultured Cells
The reverse transcription-quantitative PCR-based (RT-qPCR) assay is used to quantify the level of the full length SMN2 minigene mRNA containing SMN2 exon 7 in a HEK293H cell line stably transfected with said minigene and treated with a test compound.
Protocol. HEK293H cells stably transfected with the SMN2-A minigene construct described above (10,000 cells/well) are seeded in 200 μL of cell culture medium (DMEM plus 10% FBS, with 200 μg/mL hygromycin) in 96-well flat-bottom plates and the plate is immediately swirled to ensure proper dispersal of cells, forming an even monolayer of cells. Cells are allowed to attach for at least 4-6 hours. Test compounds are serially diluted 3.16-fold in 100% DMSO to generate a 7-point concentration curve. A solution of test compound (1 μL, 200× in DMSO) is added to each cell-containing well and the plate is incubated for 24 hours in a cell culture incubator (37° C., 5% CO2, 100% relative humidity). Two replicates are prepared for each test compound concentration. The cells are then lysed in Cells-To-Ct lysis buffer and the lysate is stored at −80° C.
Primer SMN Forward A (SEQ ID NO. 1) hybridizes to a nucleotide sequence in exon 7 (nucleotide 22 to nucleotide 40), primer SMN Reverse A (SEQ ID NO. 2) hybridizes to a nucleotide sequence in the coding sequence of Firefly luciferase, SMN Probe A (SEQ ID NO. 3) hybridizes to a nucleotide sequence in exon 7 (nucleotide 50 to nucleotide 54) and exon 8 (nucleotide 1 to nucleotide 21). The combination of these three oligonucleotides detects only SMN1 or SMN2 minigenes (RT-qPCR) and will not detect endogenous SMN1 or SMN2 genes.
The SMN forward and reverse primers are used at final concentrations of 0.4 μM. The SMN probe is used at a final concentration of 0.15 μM. The GAPDH primers are used at final concentrations of 0.2 μM and the probe at 0.15 μM.
The SMN2-minigene GAPDH mix (15 μL total volume) is prepared by combining 7.5 μL of 2×RT-PCR buffer, 0.4 μL of 25×RT-PCR enzyme mix, 0.75 μL of 20×GAPDH primer-probe mix, 4.0075 μL of water, 2 μL of 10-fold diluted cell lysate, 0.06 μL of 100 μM SMN forward primer, 0.06 μL of 100 μM SMN reverse primer, and 0.225 μL of 100 μM SMN probe.
PCR is carried out at the following temperatures for the indicated time: Step 1: 48° C. (15 min); Step 2: 95° C. (10 min); Step 3: 95° C. (15 sec); Step 4: 60° C. (1 min); then repeat Steps 3 and 4 for a total of 40 cycles.
Each reaction mixture contains both SMN2-A minigene and GAPDH primers/probe sets (multiplex design), allowing simultaneous measurement of the levels of two transcripts.
Two SMN spliced products are generated from the SMN2 minigene. The first spliced product containing exon 7, corresponding to SMN2 full length mRNA, is referred to herein using the term “SMN2 minigene FL.” The second spliced product lacking exon 7 is referred to herein using the term “SMN2 minigene Δ7.”
The increase of SMN2 minigene FL mRNA relative to that in cells treated with vehicle control is determined from real-time PCR data using a modified ΔΔCt method (as described in Livak and Schmittgen, Methods, 2001, 25:402-8). The amplification efficiency (E) is calculated from the slope of the amplification curve for SMN2 minigene FL and GAPDH mRNA individually. The abundance of SMN2 minigene FL and GAPDH mRNA are then calculated as (1+E)^−Ct, where Ct is the threshold value for each amplicon. The abundance of SMN2 minigene FL is normalized to GAPDH abundance. The normalized SMN2 minigene FL abundance from test compound-treated samples is then divided by normalized SMN2 minigene FL abundance from vehicle-treated cells to determine the level of SMN2 FL mRNA relative to vehicle control. […]
Background: In qPCR the cycle at which signal appears reflects the starting amount.

`O=c1cc(-c2cncc(F)c2)oc2ccc(N3CCNCC3)cc12` [Cpd 74, 2-(5-fluoropyridin-3-yl)-6-(piperazin-1-yl)-4H-chromen-4-one]: the melting point – broadly, the temperature of the solid-liquid transition – was 182 to 184 °C. For the same compound, in the data set on Smn protein, the maximal fold induction lay within 1.5 to 1.65 and the EC (1.5-fold) was 1 to 3 µM. In data set [1], the EC (1.5-fold) lay within 0.3 to 1 µM.

Compound `CCOc1ccc(-c2cc(=O)c3cc(N4CCNCC4)ccc3o2)cc1` [Cpd 41, 2-(4-ethoxyphenyl)-6-(piperazin-1-yl)-4H-chromen-4-one] yielded a melting point of 180 to 182 °C. The maximal fold induction in the data set on Smn protein was at most 1.2. Further, the EC (1.5-fold) in data set [1] is 0.3 to 1 µM.

Compound `COc1ccc(-c2cc(=O)c3cc(N4C[C@@H](C)N[C@@H](C)C4)ccc3o2)cc1C` [Cpd 53, 6-[(3R,5S)-3,5-dimethylpiperazin-1-yl]-2-(4-methoxy-3-methylphenyl)-4H-chromen-4-one] registered a melting point of 186 to 188 °C. The maximal fold induction in the data set on Smn protein was 1.2 to 1.35. The EC (1.5-fold) in data set [1] fell in the range of 0.3 to 1 µM.

`CCN1CCN(c2ccc3oc(-c4ccc(OC)c(OC)c4)cc(=O)c3c2)CC1` [Cpd 22, 2-(3,4-dimethoxyphenyl)-6-(4-ethylpiperazin-1-yl)-4H-chromen-4-one] returned a melting point of 188 to 190 °C. In addition, in the data set with Smn protein, the maximal fold induction is above 1.65 and the EC (1.5-fold) was in the range of 1 to 3 µM. The EC (1.5-fold) in data set [1] is 0.3 to 1 µM.

The compound `O=c1cc(-c2ccccn2)oc2ccc(N3CCCNCC3)cc12` [Cpd 14, 6-(1,4-diazepan-1-yl)-2-(pyridin-2-yl)-4H-chromen-4-one] came in with a melting point of 170 to 172 °C. The maximal fold induction with Smn protein was at most 1.2. In addition, the EC (1.5-fold) in data set [1] was 3 to 30 µM.

`CN1CCCN(c2ccc3oc(-c4cn5ccccc5n4)cc(=O)c3c2)CC1` [Cpd 19, 2-(imidazo[1,2-a]pyridin-2-yl)-6-(4-methyl-1,4-diazepan-1-yl)-4H-chromen-4-one] gave a melting point of 188 to 190 °C. In addition, in the data set on Smn protein, the maximal fold induction is above 1.65 and the EC (1.5-fold) lay within 1 to 3 µM. Moreover, the EC (1.5-fold) in data set [1] was 3 to 30 µM.

Compound `CCOc1ccc(-c2cc(=O)c3cc(N4CCN[C@@H](C)C4)ccc3o2)cc1` [Cpd 42, 2-(4-ethoxyphenyl)-6-[(3S)-3-methylpiperazin-1-yl]-4H-chromen-4-one] showed a melting point of 93 to 94 °C. The maximal fold induction with Smn protein is 1.2 to 1.35. In addition, the EC (1.5-fold) in data set [1] is 0.3 to 1 µM.

On to `O=c1cc(-c2cccnc2)oc2ccc(N3CCCNCC3)cc12` [Cpd 6, 6-(1,4-diazepan-1-yl)-2-(pyridin-3-yl)-4H-chromen-4-one], for which the melting point is 162 to 164 °C. Further, the maximal fold induction with Smn protein is at most 1.2. In addition, in data set [1], the EC (1.5-fold) lay within 3 to 30 µM.

On to `C[C@H]1CN(c2ccc3oc(-c4ccc(OC(F)(F)F)cc4)cc(=O)c3c2)CCN1` [Cpd 65, 6-[(3S)-3-methylpiperazin-1-yl]-2-[4-(trifluoromethoxy)phenyl]-4H-chromen-4-one], for which the melting point fell in the range of 138 to 140 °C. Moreover, the maximal fold induction with Smn protein was at most 1.2. Further, the EC (1.5-fold) in data set [1] was in the range of 1 to 3 µM.

The compound `COc1ccc(-c2cc(=O)c3cc(N4CCN[C@H](C)C4)ccc3o2)cc1Cl` [Cpd 61, 2-(3-chloro-4-methoxyphenyl)-6-[(3R)-3-methylpiperazin-1-yl]-4H-chromen-4-one] showed a melting point of 170 to 172 °C. Besides, the maximal fold induction in the data set with Smn protein lay in the range of 1.2 to 1.35. Further, in data set [1], the EC (1.5-fold) is 0.1 to 0.3 µM.

Regarding `COc1ccc(-c2cc(=O)c3cc(N4CCN[C@H](C)C4)ccc3o2)cc1C` [Cpd 54, 2-(4-methoxy-3-methylphenyl)-6-[(3R)-3-methylpiperazin-1-yl]-4H-chromen-4-one], the melting point is 164 to 166 °C. In addition, the maximal fold induction in the data set on Smn protein is 1.2 to 1.35. Also, the EC (1.5-fold) in data set [1] lay within 0.3 to 1 µM.

For `COc1ccc(-c2cc(=O)c3cc(N4CCN[C@H](C)C4)ccc3o2)cn1` [Cpd 57, 2-(6-methoxypyridin-3-yl)-6-[(3R)-3-methylpiperazin-1-yl]-4H-chromen-4-one], the melting point was in the range of 198 to 200 °C. Also, the maximal fold induction in the data set with Smn protein fell in the range of 1.2 to 1.35. Also, the EC (1.5-fold) in data set [1] was 0.3 to 1 µM.

In the case of `C[C@H]1CN(c2ccc3oc(-c4cncc(F)c4)cc(=O)c3c2)CCN1` [Cpd 75, 2-(5-fluoropyridin-3-yl)-6-[(3S)-3-methylpiperazin-1-yl]-4H-chromen-4-one], the melting point is 168 to 172 °C. In addition, in the data set with Smn protein, the maximal fold induction fell in the range of 1.5 to 1.65 and the EC (1.5-fold) fell in the range of 1 to 3 µM. The EC (1.5-fold) in data set [1] lay in the range of 0.3 to 1 µM.
